Species on record: Rattus norvegicus
Experiment: DrugMatrix - Regimen: Daily Repeat
Format: toxicity, organism-based, Sprague-Dawley
Design: regimen Daily Repeat, gender Male, age 6-8 weeks
Settings: in vivo, iv, vehicle 100 % SALINE; for ABSOLUTE BASOPHIL / ABSOLUTE EOSINOPHIL / ABSOLUTE LYMPHOCYTE / ABSOLUTE MONOCYTE / ABSOLUTE SEGMENTED NEUTROPHIL / BASOPHIL / EOSINOPHIL / ERYTHROCYTE COUNT / HEMATOCRIT / HEMOGLOBIN / LEUKOCYTE COUNT / LYMPHOCYTE / MEAN CORPUSCULAR HEMOGLOBIN / MEAN CORPUSCULAR HEMOGLOBIN CONCENTRATION / MEAN CORPUSCULAR VOLUME / MONOCYTE / NEUTROPHIL / NUCLEATED RED BLOOD CELLS / PLATELET COUNT: tissue Blood; for ALANINE AMINOTRANSFERASE / ALBUMIN / ALKALINE PHOSPHATASE / ASPARTATE AMINOTRANSFERASE / BLOOD UREA NITROGEN / CARBON DIOXIDE / CHLORIDE / CHOLESTEROL / CREATINE PHOSPHOKINASE / CREATININE / GLUCOSE / LACTATE DEHYDROGENASE / LIPASE / PHOSPHORUS / POTASSIUM / SODIUM / TOTAL BILIRUBIN / TOTAL PROTEIN / URIC ACID: tissue Plasma
[1] = 0 mg/kg, 72 h, dose level Control, time 3 day
[2] = 0 mg/kg, 120 h, dose level Control, time 5 day
[3] = 20 mg/kg, 72 h, dose level Low, time 3 day
[4] = 20 mg/kg, 120 h, dose level Low, time 5 day

CN(N=O)C(=O)N[C@@H](C=O)[C@@H](O)[C@H](O)[C@H](O)CO [STREPTOZOCIN]
ABSOLUTE BASOPHIL [1]: 0 CELLS/uL | ABSOLUTE EOSINOPHIL [1]: 247.67 CELLS/uL | ABSOLUTE LYMPHOCYTE [1]: 13190.83 CELLS/uL | ABSOLUTE MONOCYTE [1]: 307.67 CELLS/uL | ABSOLUTE SEGMENTED NEUTROPHIL [1]: 1220.5 CELLS/uL | BASOPHIL [1]: 0% | EOSINOPHIL [1]: 1.67% | ERYTHROCYTE COUNT [1]: 5.47 x10E6/uL | HEMATOCRIT [1]: 33.98% | HEMOGLOBIN [1]: 12.65 G/DL | LEUKOCYTE COUNT [1]: 14.97 x10E3/uL | LYMPHOCYTE [1]: 88.17% | MEAN CORPUSCULAR HEMOGLOBIN [1]: 23.17 pg | MEAN CORPUSCULAR HEMOGLOBIN CONCENTRATION [1]: 37.23 G/DL | MEAN CORPUSCULAR VOLUME [1]: 62.25 fL | MONOCYTE [1]: 2% | NEUTROPHIL [1]: 8.17% | NUCLEATED RED BLOOD CELLS [1]: 0 /100WBC | PLATELET COUNT [1]: 1307.17 x10E3/uL | ALANINE AMINOTRANSFERASE [1]: 39.67 u/L | ALBUMIN [1]: 4.08 G/DL | ALKALINE PHOSPHATASE [1]: 383.17 u/L | ASPARTATE AMINOTRANSFERASE [1]: 88.83 u/L | BLOOD UREA NITROGEN [1]: 18.5 mg/dL | CARBON DIOXIDE [1]: 27.5 mmol/L | CHLORIDE [1]: 103 MEQ/L | CHOLESTEROL [1]: 67.33 mg/dL | CREATINE PHOSPHOKINASE [1]: 414.67 u/L | CREATININE [1]: 0.19 mg/dL | GLUCOSE [1]: 149.33 mg/dL | LACTATE DEHYDROGENASE [1]: 536.83 u/L | LIPASE [1]: 8.83 u/L | PHOSPHORUS [1]: 11.13 mg/dL | POTASSIUM [1]: 6.23 MEQ/L | SODIUM [1]: 144.42 MEQ/L | TOTAL BILIRUBIN [1]: 0.18 mg/dL | TOTAL PROTEIN [1]: 5.57 G/DL | URIC ACID [1]: 1.23 mg/dL | ABSOLUTE BASOPHIL [2]: 0 CELLS/uL | ABSOLUTE EOSINOPHIL [2]: 158.83 CELLS/uL | ABSOLUTE LYMPHOCYTE [2]: 13517.17 CELLS/uL | ABSOLUTE MONOCYTE [2]: 352.67 CELLS/uL | ABSOLUTE SEGMENTED NEUTROPHIL [2]: 1104.67 CELLS/uL | BASOPHIL [2]: 0% | EOSINOPHIL [2]: 1% | ERYTHROCYTE COUNT [2]: 5.73 x10E6/uL | HEMATOCRIT [2]: 36.85% | HEMOGLOBIN [2]: 13.67 G/DL | LEUKOCYTE COUNT [2]: 15.13 x10E3/uL | LYMPHOCYTE [2]: 89.5% | MEAN CORPUSCULAR HEMOGLOBIN [2]: 23.87 pg | MEAN CORPUSCULAR HEMOGLOBIN CONCENTRATION [2]: 37.1 G/DL | MEAN CORPUSCULAR VOLUME [2]: 64.33 fL | MONOCYTE [2]: 2.33% | NEUTROPHIL [2]: 7.17% | NUCLEATED RED BLOOD CELLS [2]: 0.17 /100WBC | PLATELET COUNT [2]: 1266 x10E3/uL | ALANINE AMINOTRANSFERASE [2]: 49.17 u/L | ALBUMIN [2]: 4.22 G/DL | ALKALINE PHOSPHATASE [2]: 352.67 u/L | ASPARTATE AMINOTRANSFERASE [2]: 95.17 u/L | BLOOD UREA NITROGEN [2]: 18.83 mg/dL | CARBON DIOXIDE [2]: 25.67 mmol/L | CHLORIDE [2]: 102.67 MEQ/L | CHOLESTEROL [2]: 66.83 mg/dL | CREATINE PHOSPHOKINASE [2]: 550.33 u/L | CREATININE [2]: 0.23 mg/dL | GLUCOSE [2]: 186.17 mg/dL | LACTATE DEHYDROGENASE [2]: 471.33 u/L | LIPASE [2]: 8.67 u/L | PHOSPHORUS [2]: 12.3 mg/dL | POTASSIUM [2]: 6.35 MEQ/L | SODIUM [2]: 143.57 MEQ/L | TOTAL BILIRUBIN [2]: 0.18 mg/dL | TOTAL PROTEIN [2]: 6.05 G/DL | URIC ACID [2]: 2 mg/dL | ABSOLUTE BASOPHIL [3]: 0 CELLS/uL | ABSOLUTE EOSINOPHIL [3]: 193 CELLS/uL | ABSOLUTE LYMPHOCYTE [3]: 10866.33 CELLS/uL | ABSOLUTE MONOCYTE [3]: 207.67 CELLS/uL | ABSOLUTE SEGMENTED NEUTROPHIL [3]: 899.67 CELLS/uL | BASOPHIL [3]: 0% | EOSINOPHIL [3]: 1.67% | ERYTHROCYTE COUNT [3]: 5.49 x10E6/uL | HEMATOCRIT [3]: 33.93% | HEMOGLOBIN [3]: 12.73 G/DL | LEUKOCYTE COUNT [3]: 12.17 x10E3/uL | LYMPHOCYTE [3]: 89.33% | MEAN CORPUSCULAR HEMOGLOBIN [3]: 23.23 pg | MEAN CORPUSCULAR HEMOGLOBIN CONCENTRATION [3]: 37.5 G/DL | MEAN CORPUSCULAR VOLUME [3]: 61.77 fL | MONOCYTE [3]: 1.67% | NEUTROPHIL [3]: 7.33% | NUCLEATED RED BLOOD CELLS [3]: 0.33 /100WBC | PLATELET COUNT [3]: 1240.67 x10E3/uL | ALANINE AMINOTRANSFERASE [3]: 42 u/L | ALBUMIN [3]: 4.1 G/DL | ALKALINE PHOSPHATASE [3]: 304.33 u/L | ASPARTATE AMINOTRANSFERASE [3]: 96.33 u/L | BLOOD UREA NITROGEN [3]: 16 mg/dL | CARBON DIOXIDE [3]: 25.33 mmol/L | CHLORIDE [3]: 104 MEQ/L | CHOLESTEROL [3]: 67 mg/dL | CREATINE PHOSPHOKINASE [3]: 595 u/L | CREATININE [3]: 0.25 mg/dL | GLUCOSE [3]: 148.67 mg/dL | LACTATE DEHYDROGENASE [3]: 798.67 u/L | LIPASE [3]: 9.33 u/L | PHOSPHORUS [3]: 11.97 mg/dL | POTASSIUM [3]: 6.35 MEQ/L | SODIUM [3]: 143.3 MEQ/L | TOTAL BILIRUBIN [3]: 0.17 mg/dL | TOTAL PROTEIN [3]: 5.4 G/DL | URIC ACID [3]: 1.33 mg/dL | ABSOLUTE BASOPHIL [4]: 0 CELLS/uL | ABSOLUTE EOSINOPHIL [4]: 64 CELLS/uL | ABSOLUTE LYMPHOCYTE [4]: 13587.67 CELLS/uL | ABSOLUTE MONOCYTE [4]: 429.67 CELLS/uL | ABSOLUTE SEGMENTED NEUTROPHIL [4]: 1452 CELLS/uL | BASOPHIL [4]: 0% | EOSINOPHIL [4]: 0.33% | ERYTHROCYTE COUNT [4]: 5.57 x10E6/uL | HEMATOCRIT [4]: 35.7% | HEMOGLOBIN [4]: 13.4 G/DL | LEUKOCYTE COUNT [4]: 15.53 x10E3/uL | LYMPHOCYTE [4]: 87.33% | MEAN CORPUSCULAR HEMOGLOBIN [4]: 24.07 pg | MEAN CORPUSCULAR HEMOGLOBIN CONCENTRATION [4]: 37.53 G/DL | MEAN CORPUSCULAR VOLUME [4]: 64.17 fL | MONOCYTE [4]: 2.67% | NEUTROPHIL [4]: 9.67% | NUCLEATED RED BLOOD CELLS [4]: 0 /100WBC | PLATELET COUNT [4]: 1260.33 x10E3/uL | ALANINE AMINOTRANSFERASE [4]: 54.33 u/L | ALBUMIN [4]: 4 G/DL | ALKALINE PHOSPHATASE [4]: 308.67 u/L | ASPARTATE AMINOTRANSFERASE [4]: 82.33 u/L | BLOOD UREA NITROGEN [4]: 21 mg/dL | CARBON DIOXIDE [4]: 26.33 mmol/L | CHLORIDE [4]: 103.67 MEQ/L | CHOLESTEROL [4]: 70.33 mg/dL | CREATINE PHOSPHOKINASE [4]: 420.67 u/L | CREATININE [4]: 0.21 mg/dL | GLUCOSE [4]: 181.67 mg/dL | LACTATE DEHYDROGENASE [4]: 60.33 u/L | LIPASE [4]: 7.67 u/L | PHOSPHORUS [4]: 12.23 mg/dL | POTASSIUM [4]: 6.34 MEQ/L | SODIUM [4]: 146.17 MEQ/L | TOTAL BILIRUBIN [4]: 0.17 mg/dL | TOTAL PROTEIN [4]: 6.03 G/DL | URIC ACID [4]: 1.87 mg/dL

— ChEMBL document CHEMBL3885881, “DrugMatrix”
